# Experimental data: the supplement of paper PMC10307832
# Legend:
# Assay in all cases: relative viability (nuclei count vs DMSO), 5 days (fraction); higher = more cells survive
# Adavosertib + Luminespib = compound: C=CCn1c(=O)c2cnc(Nc3ccc(N4CCN(C)CC4)cc3)nc2n1-c1cccc(C(C)(C)O)n1 [Adavosertib] + CCNC(=O)c1noc(-c2cc(C(C)C)c(O)cc2O)c1-c1ccc(CN2CCOCC2)cc1 [Luminespib] (partner 0.01 µM)
# Procedure, shortened: (§1)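 Lung cancer cell lines, seeded in 1536-well plates, were treated the following day by pin tool with a single drug or with five library-drug doses (not always all listed) in √10 steps on top of a fixed anchor-drug dose. Cells were fixed and nuclei stained in one step after 5 days, and nuclei were counted. Relative viability is the nuclei count for treated wells divided by that for vehicle wells, reported as medians of duplicate plates.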
# Adavosertib + Olaparib = compound: C=CCn1c(=O)c2cnc(Nc3ccc(N4CCN(C)CC4)cc3)nc2n1-c1cccc(C(C)(C)O)n1 [Adavosertib] + O=C(c1cc(Cc2n[nH]c(=O)c3ccccc23)ccc1F)N1CCN(C(=O)C2CC2)CC1 [Olaparib] (partner 8 µM)
# Procedure, shortened: as §1
# Nelarabine + Pictilisib = compound: COc1nc(N)nc2c1ncn2[C@@H]1O[C@H](CO)[C@@H](O)[C@@H]1O [Nelarabine] + CS(=O)(=O)N1CCN(Cc2cc3nc(-c4cccc5[nH]ncc45)nc(N4CCOCC4)c3s2)CC1 [Pictilisib] (partner 1 µM)
# Procedure, shortened: as §1
# Nelarabine + AZD7762 = compound: COc1nc(N)nc2c1ncn2[C@@H]1O[C@H](CO)[C@@H](O)[C@@H]1O [Nelarabine] + NC(=O)Nc1cc(-c2cccc(F)c2)sc1C(=O)N[C@H]1CCCNC1 [AZD7762] (partner 0.2 µM)
# Procedure, shortened: as §1
Cell Line,relative viability (Adavosertib + Luminespib; first compound 0.01 µM),relative viability (Adavosertib + Luminespib; first compound 0.03162 µM),relative viability (Adavosertib + Luminespib; first compound 0.1 µM),relative viability (Adavosertib + Luminespib; first compound 0.3162 µM),relative viability (Adavosertib + Olaparib; first compound 0.01 µM),relative viability (Adavosertib + Olaparib; first compound 0.03162 µM),relative viability (Adavosertib + Olaparib; first compound 0.1 µM),relative viability (Adavosertib + Olaparib; first compound 0.3162 µM),relative viability (Nelarabine + Pictilisib; first compound 0.01 µM),relative viability (Nelarabine + Pictilisib; first compound 0.1 µM),relative viability (Nelarabine + Pictilisib; first compound 0.3162 µM),relative viability (Nelarabine + Pictilisib; first compound 1 µM),relative viability (Nelarabine + AZD7762; first compound 0.01 µM),relative viability (Nelarabine + AZD7762; first compound 0.03162 µM),relative viability (Nelarabine + AZD7762; first compound 0.1 µM),relative viability (Nelarabine + AZD7762; first compound 0.3162 µM),relative viability (Nelarabine + AZD7762; first compound 1 µM),relative viability (Nelarabine + Pictilisib; first compound 0.03162 µM)
NCI-H1792,0.595,0.446,0.456,0.569,0.464,0.461,0.378,0.459,0.348,0.323,0.326,0.323,0.854,0.69,1.1,0.68,0.6,
LK-2,0.163,0.216,0.182,0.183,0.742,0.891,0.763,0.767,0.68,0.503,0.436,0.651,0.408,,0.289,0.498,0.309,
BEN,0.195,0.501,0.413,0.389,1.07,1.01,1.12,1.05,0.67,0.605,0.607,0.641,0.746,0.683,0.711,0.683,0.674,0.596
RERF-LC-KJ,1.32,1.33,1.29,1.16,0.952,0.986,1.05,0.955,0.582,0.559,0.578,0.422,0.993,1.11,1.02,1.15,1.08,0.652
LU99A,0.314,0.188,0.221,0.198,0.238,0.224,0.209,0.179,0.302,0.327,0.321,0.299,0.365,0.284,0.335,0.312,0.424,0.269
PC-14,0.151,0.165,0.219,0.141,0.44,0.211,0.176,0.0727,1.17,0.563,0.815,0.653,0.382,0.319,0.447,0.417,0.304,0.759
NCI-H650,0.76,0.842,0.841,0.673,0.397,0.412,0.397,0.207,1.05,0.762,0.917,1.04,0.75,0.991,0.915,0.932,0.943,0.789
NCI-H1651,0.812,1.06,0.733,0.678,0.17,0.218,0.139,0.16,0.683,0.63,0.699,0.736,0.495,0.53,0.452,0.518,0.422,0.476
NCI-H2087,0.208,0.187,0.194,0.195,0.663,0.595,0.606,0.604,0.961,0.99,1.22,1.02,1.72,1.42,1.37,1.51,1.21,0.975
EKVX,0.875,0.853,0.84,0.967,0.756,0.841,0.783,0.833,0.547,0.359,0.508,0.474,0.977,0.63,0.606,0.717,0.732,0.373
NCI-H1975,0.16,0.17,0.188,0.176,0.873,0.803,0.737,0.63,0.325,0.369,0.335,0.331,0.964,0.799,0.778,0.701,0.766,0.295
NCI-H647,0.128,0.179,0.151,0.136,0.549,0.581,0.459,0.209,0.475,0.492,0.445,0.37,0.554,0.294,0.563,0.58,0.431,0.363
NCI-H1755,0.417,0.616,0.342,0.531,0.87,0.936,0.891,0.72,0.488,0.507,0.429,0.522,0.473,0.455,0.425,0.516,0.474,0.429
LXF-289,0.598,0.651,0.654,0.783,1.1,1.06,1.13,1.02,0.739,0.845,0.801,0.751,1.22,1.14,1.02,1.17,1,0.841
NCI-H1993,0.912,0.904,0.836,1.06,0.97,1.01,0.988,1.26,0.718,0.894,0.779,0.899,0.845,0.438,0.642,0.841,0.692,0.81
LCLC-97TM1,0.78,0.54,0.982,0.804,0.412,0.369,0.439,0.303,0.196,0.152,0.248,0.22,0.273,,0.351,0.281,0.215,0.202
NCI-H2347,0.467,0.382,0.723,0.292,0.584,0.595,0.548,0.54,0.555,0.766,0.726,0.606,0.915,0.658,0.718,0.506,0.769,0.303
LCLC-103H,0.865,1.05,0.892,0.837,0.797,0.769,0.761,0.742,0.756,0.62,0.671,0.652,0.829,0.75,0.71,0.855,0.838,0.811

Cell Line,relative viability (Adavosertib + Luminespib; first compound 0.01 µM),relative viability (Adavosertib + Luminespib; first compound 0.03162 µM),relative viability (Adavosertib + Luminespib; first compound 0.1 µM),relative viability (Adavosertib + Luminespib; first compound 0.3162 µM),relative viability (Adavosertib + Olaparib; first compound 0.01 µM),relative viability (Adavosertib + Olaparib; first compound 0.03162 µM),relative viability (Adavosertib + Olaparib; first compound 0.1 µM),relative viability (Adavosertib + Olaparib; first compound 0.3162 µM),relative viability (Nelarabine + Pictilisib; first compound 0.01 µM),relative viability (Nelarabine + Pictilisib; first compound 0.1 µM),relative viability (Nelarabine + Pictilisib; first compound 0.3162 µM),relative viability (Nelarabine + Pictilisib; first compound 1 µM),relative viability (Nelarabine + AZD7762; first compound 0.01 µM),relative viability (Nelarabine + AZD7762; first compound 0.03162 µM),relative viability (Nelarabine + AZD7762; first compound 0.1 µM),relative viability (Nelarabine + AZD7762; first compound 0.3162 µM),relative viability (Nelarabine + AZD7762; first compound 1 µM),relative viability (Nelarabine + Pictilisib; first compound 0.03162 µM)
NCI-H596,0.911,1.2,0.958,0.76,0.736,0.791,0.52,0.591,0.402,0.399,0.376,0.446,1.2,1.01,1.05,1.22,1.23,0.445
NCI-H727,0.299,0.363,0.301,0.24,0.73,0.845,0.683,0.744,0.581,0.348,0.397,0.302,0.497,0.525,0.463,0.543,0.463,0.476
EPLC-272H,0.225,0.549,0.196,0.182,0.955,0.674,0.566,0.2,0.337,0.315,0.302,0.298,0.196,0.209,0.305,0.247,0.297,0.269
NCI-H2170,0.592,0.747,0.626,0.479,0.643,0.586,0.588,0.448,0.326,0.253,0.34,0.316,1.15,0.869,0.843,0.932,0.709,0.253
NCI-H1355,0.671,0.644,0.617,0.631,0.736,0.698,0.757,0.685,0.484,0.335,0.465,0.478,0.935,0.608,0.657,0.804,0.822,0.366
LOU-NH91,0.34,0.375,0.357,0.32,0.857,0.917,0.946,0.928,0.515,0.487,0.527,0.54,0.868,0.69,0.78,0.732,0.69,0.464
NCI-H322M,0.764,0.789,0.57,0.398,0.771,0.801,0.699,0.425,0.505,0.433,0.568,0.542,0.559,0.553,0.522,0.595,0.507,0.523
HCC-15,0.309,0.325,0.334,0.359,0.73,0.727,0.958,0.876,0.893,0.76,0.871,0.832,1.47,1.15,0.967,1.17,1.19,0.669
A-427,0.877,1,1.05,0.634,0.76,0.716,0.815,0.701,0.928,0.745,0.716,0.714,0.781,0.62,0.599,0.62,0.572,0.749
CAL-12T,0.312,0.102,0.601,0.23,0.722,0.723,0.863,0.475,0.393,0.365,0.494,0.423,0.721,0.642,0.685,0.58,0.561,0.642
NCI-H1793,0.148,0.21,0.179,0.156,0.739,0.794,0.746,0.529,0.367,0.293,0.314,0.256,0.557,,0.319,0.748,0.436,0.35
NCI-H460,0.0322,0.0312,0.0317,0.0275,0.391,0.376,0.308,0.405,0.408,0.379,0.407,0.337,0.79,0.626,0.616,0.558,0.323,0.431
HARA,0.781,0.795,0.845,0.366,0.464,0.535,0.766,0.187,0.457,0.336,0.452,0.354,0.426,0.284,0.307,0.441,0.373,0.346
NCI-H1437,1.07,1.2,1.17,1.07,0.65,0.613,0.643,0.566,0.465,0.373,0.426,0.47,1.24,1.17,1.15,1.15,1.09,0.356
201T,1.1,1.04,1.05,1.09,0.887,0.882,0.868,0.818,0.792,0.718,0.714,0.705,0.774,0.547,0.609,0.653,0.612,0.556
LC-2-ad,1.01,1.11,1.26,1.08,0.7,0.725,0.803,0.786,0.624,0.428,0.482,0.468,1.01,0.96,0.859,0.908,0.856,0.467
NCI-H441,0.291,0.346,0.418,0.276,0.533,0.477,0.577,0.462,0.488,0.543,0.461,0.582,1.33,1.2,1.43,1.14,1.23,0.376
